In US20110165232A1, “Use of Opioid Antagonists for the Preparation of a Medicament in the Treatment of Retinal Degenerative Diseases” (AK KIMYA ITHALAT-IHRACAT VE SANAYII ANONIM SIRKETI, priority 2008, published 2011):

Key:
Met-enkephalin = conditions: animal research, Ref 7; cited from earlier work
human tumors = conditions: laboratory studies, low dose naltrexone methodology; cited from earlier work
beta-endorphins = conditions: normal volunteers, LDN at bedtime, in the following days; cited from earlier work
[1] = test system: age related macular degeneration; assay: Case reports: low dose naltrexone regimen in patients with age related macular degeneration; format: in vivo, human; conditions: elderly person with age related macular degeneration, 4.5 mg per day at bedtime
Description: An […] has had age related macular degeneration for the last 11 years of […] life, experiencing progressive blurring in the center of […] vision. The degeneration led to loss of central vision […] from many daily activities. It […] very difficult to lead an independent life.
An […] has had age related macular degeneration for the last 10 years […]. […] experienced a loss of central vision […] to differentiate the colors of the surrounding objects and letters in the newspapers. […] […] began to differentiate the colors of the objects shown to […]; […] started to differentiate the big printed letters in the newspapers.

## O=C1CC[C@@]2(O)[C@H]3Cc4ccc(O)c5c4[C@@]2(CCN3CC2CC2)[C@H]1O5 [naltrexone]
Met-enkephalin
  Met-enkephalin levels: marked increase in Met-enkephalin levels
Human tumors
  inhibition of human tumors: inhibition of different human tumors
beta-endorphins
  levels of beta-endorphins in blood: higher levels of beta-endorphins in their blood
[1]
  quality of vision: the quality of their vision started to improve
  time after initiation of therapy until vision began to improve: Approximately 50 days
[1]; listed as low dose naltrexone
  quality of vision: improvement in the quality of their vision
  time after initiation of therapy until vision began to improve: 50 to 60 days
